Measured values from the NIST ThermoML archive (doi:10.1016/j.jct.2013.05.009).

What was measured:
[1] = refractive index (Na D-line) (dimensionless); conditions: 298.15 K; 101.33 kPa; Liquid; Standard Abbe refractometry
[2] = 101 kPa, Liquid; for speed of sound: Sing-around technique in a fixed-path interferometer; for mass density: Vibrating tube method
[3] = xn = mol fraction of the nth substance listed; conditions: 101 kPa, Liquid; for mass density: Vibrating tube method; for speed of sound: fixed-path interferometer

CC(C)CC(C)(C)C [2,2,4-trimethylpentane]
Conditions	refractive index
[1]	1.38901

[2]
Conditions	mass density [kg/m3]	speed of sound [m/s]
298.15 K	687.68	1082.7
308.15 K	679.45	1041.1
318.15 K	671.3	1000.1
328.15 K	663.17	959.4

CC(C)CC(C)(C)C [2,2,4-trimethylpentane] + Cc1ccccc1
[3]
Conditions	mass density, 298.15 K [kg/m3]	mass density, 308.15 K [kg/m3]	mass density, 318.15 K [kg/m3]	mass density, 328.15 K [kg/m3]	speed of sound, 298.15 K [m/s]	speed of sound, 308.15 K [m/s]	speed of sound, 318.15 K [m/s]	speed of sound, 328.15 K [m/s]
x1 = 0.2055	811.87	802.88	793.92	784.96	1235.8	1193.6	1151.9	1110.8
x1 = 0.403	772.32	763.58	754.88	746.18	1184.2	1142.3	1100.9	1060.1
x1 = 0.6062	738.6	730.06	721.58	713.11	1142.4	1100.5	1059.3	1018.7
x1 = 0.8001	711.48	703.11	694.81	686.51	1110	1068.4	1027.2	986.7

CCCCO [butan-1-ol]
Conditions	refractive index
[1]	1.39733

[2]
Conditions	mass density [kg/m3]	speed of sound [m/s]
298.15 K	805.74	1239.9
308.15 K	798.07	1206.6
318.15 K	790.38	1173.4
328.15 K	782.58	1140.4

CCCCO [butan-1-ol] + CC(C)CC(C)(C)C
[3], x2 = 0
Conditions	mass density [kg/m3]	speed of sound [m/s]
298.15 K	805.74	1239.9
308.15 K	798.07	1206.6
318.15 K	790.38	1173.4
328.15 K	782.58	1140.4

Cc1ccccc1 [toluene]
Conditions	refractive index
[1]	1.49393

[2]
Conditions	mass density [kg/m3]	speed of sound [m/s]
298.15 K	862.19	1305.4
308.15 K	852.88	1262.7
318.15 K	843.6	1220.4
328.15 K	834.29	1178.6

Cc1ccccc1 [toluene] + CCCCO
[3], x1 = 1
Conditions	mass density [kg/m3]	speed of sound [m/s]
298.15 K	862.19	1305.4
308.15 K	852.88	1262.7
318.15 K	843.6	1220.4
328.15 K	834.29	1178.6
